Laboratory results published in patent US20240165129A1, “METHODS OF TREATING PAIN AND DEPRESSION” (priority 2022, published 2024).
Entries after “also recorded” stand apart in the source; their conditions may differ.

How the values were obtained:
mice brain after MCAO = settings: mouse, in vivo
[1] = test system: corticosterone-induced depression-like behaviors in mice; test: Mouse model of depression induced by repeated corticosterone injections; format: in vivo; settings: 12 mg/kg i.p. daily, corticosterone 40 mg/kg i.p. for 21 days
Procedure: Based on the fact that Triol inhibits ASIC1a, Triol can have anti-depression activity. […] A mouse model of depression induced by repeated corticosterone injections is used. Depression-like behaviors are induced by repeated administration of corticosterone (40 mg/kg, i.p.), once a day for 21 days in mice. Mice arerandomly assigned to 4 experimental groups (n=10/group). Control, corticosterone, corticosterone +Vehicle (20% HP-β-CD) and corticosterone+ Triol (12 mg/kg, i.p.). Triol is administered daily. The sucrose consumption test, open-field test (OFT), tail suspension test (TST), and forced swimming test (FST) are used to evaluate the therapeutic effect of Triol.

[2] = test system: mice (depression-like behavior); test: Forced swim test; format: in vivo, mouse
[3] = test system: mice (depression-like behavior); test: Tail suspension test; format: in vivo, mouse
Procedure: This test is performed by the Tennessee Mouse Genome Consortium (tnmouse.org/neuromutagenesis/behavioral). Mice are suspended by the tail from a ledge ˜60 cm from the ground with adhesive tape. Immobility is defined as the absence of movement and is scored over a 6—min trial.

[4] = test system: mice (depression-like behavior); test: Sucrose preference and chronic (unpredictable) mild stress; format: in vivo, mouse
Procedure: Sucrose preference is assessed in individually housed, stressed and unstressed mice. Briefly, two bottles (one 8% sucrose and one water) are placed in each cage for 3 d; 2 d to habituate and 1 d to assess sucrose preference. The locations of the bottles are rotated each 24-h period. At the beginning and end of the final 12-h period both bottles are weighed, and sucrose preference is defined as sucrose solution consumed/total liquid consumed×100%. Unstressed mice only undergo the 3 d sucrose preference assessment. Stressed mice also undergo 6 d of unpredictable stressors in the following order: restraint (3 h), wetted bedding (12 h), restraint (3 h), 45° angle cage tilt (12 h), paired housing with an unfamiliar mouse (1 h), exposure to a predator odor (1 h) (trimethylthiazoline, Pherotech International). Sucrose preference is then assessed during the final overnight period as described above.

[5] = test system: C57BL/6J mice (inflammatory pain); test: Carrageenan-evoked inflammatory pain, von Frey paw withdrawal; format: in vivo, mouse; settings: 12 mg/kg IV, 2 h after 2% carrageenan intraplantar
Procedure: Triol inhibits the above ASICs, so Triol has an analgesic effect. […] Experiments are performed on 12-week-old (20-25 g) C57BL/6J mice following the guidelines of the International Association for the Study of Pain. Inflammatory pain is evoked by intraplantar injection in the left hindpaw of 2% carrageenan (20 μl). After 2 h, Triol (12 mg/kg) or vehicle (20% HP-β-CD) is injected IV. The mechanical withdrawal threshold on the plantar surface of the hindpaw is measured with a set of von Frey hairs in the range of 0.4-26 gm (0.4, 1.2, 2, 4, 6, 8, 10, 15, 26 gm).

stroke = settings: in vivo; cited from earlier work
homomeric ASIC1β = target: T1, homomeric ASIC1β (Rattus norvegicus, UniProt P55926); test: Patch-clamp recording of ASIC1β currents in CHO cells with transient expression; settings: 10 μM, pH drop 7.4 to 6.0, n=4-5
T1 sequence (P55926 1-559 isoform P55926-3): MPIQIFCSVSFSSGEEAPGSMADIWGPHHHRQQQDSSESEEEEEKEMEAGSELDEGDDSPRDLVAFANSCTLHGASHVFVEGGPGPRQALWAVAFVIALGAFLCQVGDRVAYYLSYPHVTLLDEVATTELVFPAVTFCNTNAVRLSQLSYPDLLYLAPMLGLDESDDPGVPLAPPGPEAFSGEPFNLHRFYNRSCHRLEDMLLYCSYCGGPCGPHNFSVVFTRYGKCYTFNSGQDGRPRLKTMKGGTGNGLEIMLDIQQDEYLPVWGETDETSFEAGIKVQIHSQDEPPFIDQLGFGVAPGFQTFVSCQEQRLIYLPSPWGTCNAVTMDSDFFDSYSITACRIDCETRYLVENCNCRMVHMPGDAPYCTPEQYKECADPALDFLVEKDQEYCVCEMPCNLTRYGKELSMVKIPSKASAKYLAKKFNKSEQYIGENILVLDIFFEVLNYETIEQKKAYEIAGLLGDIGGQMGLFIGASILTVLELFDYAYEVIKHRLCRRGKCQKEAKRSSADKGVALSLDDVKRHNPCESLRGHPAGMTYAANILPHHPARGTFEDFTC
Procedure: Chinese hamster ovary (CHO) cells were cultured in F12-K medium (Invitrogen) plus 10% fetal bovine serum, 50 units/nal penicillin, and 50 μg/m1 streptomycin. At ˜50% confluence, CHO cells were co-transfected with cDNAs for rat ASIC1β, ASIC2a, or ASIC3, and that for GFP. GFP-positive cells were used for electrophysiological recordings 24-72 h after transient transfection.
ASIC currents were recorded using patch-clamp techniques. Pipette solution contained (mM): 140 CsF, 1 CaCl2, 2 MgCl2, 11 EGTA, 2 tetraethylammonium chloride, 10 HEPES and 4 MgATP, pH 7.3 adjusted with CsOH, 290-300 mOsm. Extracellular Fluid (ECF) contained (mM): 140 NaCl, 5.4 KCl, 2 CaCl2, 1 MgCl2, 10 glucose, and 10 HEPES (320-330 mOsm). A multi-barrel perfusion system (SF-77 Warner Instruments, Hamden, CT) was used to obtain a rapid exchange of ECFs. Currents were recorded with Axopatch 200B amplifier, filtered at 2 kHz, and digitized at 5 kHz using Digidata 1332A. ASIC currents were induced by rapid perfusion of the cells with acidic ECF for 4 seconds. Unless otherwise stated, cells were clamped at a holding potential of −60 mV. […] Data were excluded for statistical analysis when access resistance was >10 MΩ or leak current was >100 pA.
Therefore, the study used pH 6.0 and 4.5 to activate ASIC1β and ASIC2a currents, respectively. […]

For `CC(C)CCC[C@@H](C)[C@H]1CC[C@H]2[C@@H]3C[C@@H](O)[C@@]4(O)C[C@@H](O)CC[C@]4(C)[C@H]3CC[C@]12C` [Triol, cholestane-3β, 5α, 6β-triol], the “infarct volume, Triol in the presence of PcTx-1” value (mice brain after MCAO) was “no additional reduction”, the “protection against ischemic brain injury” value (mice brain after MCAO) was “didn't show additional protection; also recorded: A similar result; also recorded: significant protection” and the “antidepressant activity (sucrose consumption, OFT, TST, FST)” value [1] was “alleviating corticosterone-induced depression-like behaviors”. For the same molecule, the “depression-like behavior in the forced swim test” value [2] was “decreased levels of depression-like behavior”, the “depression-like behavior in the tail suspension test” value [3] was “decreased levels of depression-like behavior” and the “depression-like behavior following unpredictable mild stress” value [4] was “decreased levels of depression-like behavior”. For the same molecule, the “latency for the paw withdrawal reflex” value [5] was “increases the latency for the paw withdrawal reflex”, the “therapeutic time window for stroke treatment” value (stroke) was “at least 4 h” and the “effect on ASIC1β currents” value (homomeric ASIC1β) was “no significant effect”.
